Test results published in publication PMC12040169 (PLOS Biology, 2025).

Experiment: in vitro
Details: human, hela cells, % viability
Compound `CC1(C)CC(=O)C2=C(C1)NC(SCC(=O)Nc1ccc(S(=O)(=O)N3CCCCC3)cc1)=C(C#N)C2c1ccco1` (stereo not shown) [CBK266695] has a viability at 28.5 h, 10 µM of 94.3%. In the case of `O=C(CSc1nnc(Cc2cccc3ccccc23)n1-c1ccccc1)N1CCc2ccccc21` [CBK266697], the viability at 28.5 h, 10 µM is reported as 99.1%. `CCN1CCN(c2ccc(NC(=O)c3ccc(-c4cc5ccccc5oc4=O)cc3)cc2Cl)CC1` [CBK266700] gave a viability at 28.5 h, 10 µM of 84.6%. For `O=C1CC(SCc2nc3ccccc3[nH]2)C(=O)N1c1ccccc1Cl` (stereo not shown) [CBK266702], the viability at 28.5 h, 10 µM was 94.7%. `COc1cc([N+](=O)[O-])ccc1NC(=O)CS(=O)(=O)Cc1ccccc1` [CBK266704] gave a viability at 28.5 h, 10 µM of 105%. Work on `Cc1ccc(S(=O)(=O)NCCOc2nc(N(C)C)nc(N3CCOCC3)n2)cc1` [CBK266705] yielded a viability at 28.5 h, 10 µM of 97%. In the case of `N#Cc1c(N)n(CCN)c2nc3ccccc3nc12` [CBK266706], the viability at 28.5 h, 10 µM is reported as 87.4%. With `CC(=O)Nc1ccc(OC(=O)CSc2nc(C)cc(C)n2)cc1` [CBK266707] the viability at 28.5 h, 10 µM was 86.6%. With `COc1ccccc1Nc1nc(N)nc(CSc2nccn2C)n1` [CBK266710] the viability at 28.5 h, 10 µM was 95%. With `O=C(CC1C(=O)N(c2ccccc2)C(=S)N1NC(=O)c1ccccn1)Nc1ccc(Cl)cc1` (stereo not shown) [CBK266711] the viability at 28.5 h, 10 µM was 92.2%. In the case of `Nc1nnc(Sc2ccc([N+](=O)[O-])c3nonc23)s1` [CBK266712], the viability at 28.5 h, 10 µM is reported as 82.3%. Compound `CC1(C)CC2(CC(C)(C(=O)CSc3nnc(-c4ccccc4Br)[nH]3)OC2=O)C(=O)O1` (stereo not shown) [CBK266713] has a viability at 28.5 h, 10 µM of 102%. With `COc1ccc(Nc2nc(N)nc(CSCCO)n2)cc1` [CBK266714] the viability at 28.5 h, 10 µM was 88.3%. In the case of `O=C(C[S+]([O-])c1ccc(C(F)(F)F)cc1[N+](=O)[O-])Oc1cccc2cccnc12` (stereo not shown) [CBK266716], the viability at 28.5 h, 10 µM is reported as 91.6%. `Cc1ccc(S(=O)(=O)N(C)CC(=O)O/N=C(\N)c2cccnc2)cc1` [CBK266717] gave a viability at 28.5 h, 10 µM of 110%. In the case of `O=C(O)C(Cc1ccccc1)Nc1ncnc2c1oc1ccccc12` (stereo not shown) [CBK266719], the viability at 28.5 h, 10 µM is reported as 104%. Compound `COc1cccc(/C=C(/C#N)c2ccc(Cl)cc2)c1OCc1cccc(C(=O)O)c1` [CBK266721] has a viability at 28.5 h, 10 µM of 97.2%. Compound `NS(=O)(=O)c1ccc(S(=O)(=O)N2CCN(C/C=C/c3ccccc3)CC2)cc1` [CBK266723C] has a viability at 28.5 h, 10 µM of 95.8%. `OCCNc1nc(Nc2ccc(Br)cc2)nc2ccccc12` [CBK266724C] showed a viability at 28.5 h, 10 µM of 87.7%. Work on `Cc1cc(C)nc(SCc2nc(N)nc(-c3ccccc3O)n2)n1` [CBK266725] yielded a viability at 28.5 h, 10 µM of 94.4%. `Cc1cc(C)n(C(=O)c2cccc(S(=O)(=O)N3CCCCCC3)c2)n1` [CBK266727] gave a viability at 28.5 h, 10 µM of 102%. `COc1ccc(Nc2nc(N)nc(CSc3nncn3C)n2)cc1` [CBK266730] gave a viability at 28.5 h, 10 µM of 88.9%. `O=C1CC(SCc2nc3ccccc3[nH]2)C(=O)N1c1cccc(Cl)c1` (stereo not shown) [CBK266731] gave a viability at 28.5 h, 10 µM of 94.5%. In the case of `O=C(CSc1nnc(CN2CCOCC2)n1-c1ccccc1)N1CCc2ccccc21` [CBK266733], the viability at 28.5 h, 10 µM is reported as 92.7%. `CCN1CCN(C(=O)CN(Cc2ccccc2)S(C)(=O)=O)CC1` [CBK266735] showed a viability at 28.5 h, 10 µM of 94.6%. With `Brc1ccc2nc(NCc3ccccn3)nc(-c3ccccc3)c2c1` [CBK266736] the viability at 28.5 h, 10 µM was 89.3%. For `O=C(CCn1cnc2ccccc2c1=O)Nc1ccc(Cl)c(Cl)c1` [CBK266738], the viability at 28.5 h, 10 µM was 89.6%. For `Cc1nnc(SCc2cc(=O)[nH]c(Nc3nc(C)c4cccc(C)c4n3)n2)s1` [CBK266740], the viability at 28.5 h, 10 µM was 92.9%. `COC(=O)c1ccccc1NC(=O)Cn1cncc1-c1ccc([N+](=O)[O-])cc1` [CBK266741] showed a viability at 28.5 h, 10 µM of 91.9%. Work on `N#C/C(=C(/O)c1ccc(-c2ccc([N+](=O)[O-])cc2Cl)o1)c1nc(-c2ccc(F)cc2)cs1` [CBK266742] yielded a viability at 28.5 h, 10 µM of 91%. In the case of `O=C(O)c1cccc(-n2nnnc2SCc2ccccn2)c1` [CBK266744], the viability at 28.5 h, 10 µM is reported as 115%. `COc1ccccc1Nc1nc(N)nc(CSc2nc3ccccc3s2)n1` [CBK266747] gave a viability at 28.5 h, 10 µM of 95.7%. With `COc1ccc(NC(=O)CS(=O)(=O)Cc2ccccc2)c([N+](=O)[O-])c1` [CBK266748] the viability at 28.5 h, 10 µM was 93.1%. `Nc1cc(N)nc(SCC(=O)Nc2ccc(Oc3ccccc3)cc2)n1` [CBK266749] showed a viability at 28.5 h, 10 µM of 95%.
